According to US12049450B2, “Pyridyloxy-carboxylate derivative and preparation method therefor, herbicidal composition, and use” (Qingdao Kingagroot Chemical Compound Co., Ltd., priority 2018, dated 2024):

Key:
Test in all cases: Post-emergence test experiment (greenhouse pot, spray at 2-3 leaf stage)
Type in all cases: in vivo
Settings in all cases: 1000 g/ha; post-emergence spray at 2-3 leaf stage; assessed after 3 weeks; fresh weight inhibition rate
Abutilon theophrasti = system: Abutilon theophrasti
Procedure, shortened: (§1)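 Weed seeds sown in soil-filled pots in greenhouse, sprayed at 2-3 leaf stage (2 weeks after sowing) with compound in acetone/tween-80 plus methyl oleate emulsible concentrate (1.5 L/ha) diluted in water. Fresh-weight growth inhibition scored after 3 weeks on 0-5 scale (5: >85%, 0: <5%).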

Galium spurium = system: Galium spurium
Procedure, shortened: as §1

Monochoria vaginalis = system: Monochoria vaginalis
Procedure, shortened: as §1

Echinochloa crusgalli = system: Echinochloa crusgalli
Procedure, shortened: as §1

Digitaria sanguinalis = system: Digitaria sanguinalis
Procedure, shortened: as §1

| Structure (SMILES) | Activity level (growth inhibition rate) Abutilon theophrasti (Abutilon theophrasti) | Activity level (growth inhibition rate) Galium spurium (Galium spurium) | Activity level (growth inhibition rate) Monochoria Vaginalis (Monochoria vaginalis) | Activity level (growth inhibition rate) Echinochloa crusgalli (Echinochloa crusgalli) | Activity level (growth inhibition rate) Digitaria sanguinalis (Digitaria sanguinalis) |
| --- | --- | --- | --- | --- | --- |
| COC(=O)Nc1cccc(CCOC(=O)C(C)Oc2nc(F)c(Cl)c(N)c2Cl)c1 (stereo not drawn) [Compound 107] | 5 (Level 5: the growth inhibition rate is greater than 85%) | 5 (Level 5: the growth inhibition rate is greater than 85%) | 5 (Level 5: the growth inhibition rate is greater than 85%) | 5 (Level 5: the growth inhibition rate is greater than 85%) | 5 (Level 5: the growth inhibition rate is greater than 85%) |
| CC(Oc1nc(F)c(Cl)c(N)c1Cl)C(=O)OCc1cnccn1 (stereo not drawn) [Compound 121] | 5 (Level 5: the growth inhibition rate is greater than 85%) | 5 (Level 5: the growth inhibition rate is greater than 85%) | 5 (Level 5: the growth inhibition rate is greater than 85%) | 5 (Level 5: the growth inhibition rate is greater than 85%) | 5 (Level 5: the growth inhibition rate is greater than 85%) |
| CC(Oc1nc(F)c(Cl)c(N)c1Cl)C(=O)OCc1cccnn1 (stereo not drawn) [Compound 122] | 5 (Level 5: the growth inhibition rate is greater than 85%) | 5 (Level 5: the growth inhibition rate is greater than 85%) | 5 (Level 5: the growth inhibition rate is greater than 85%) | 5 (Level 5: the growth inhibition rate is greater than 85%) | 5 (Level 5: the growth inhibition rate is greater than 85%) |
| CC(Oc1nc(F)c(Cl)c(N)c1Cl)C(=O)SCc1ccnnc1 (stereo not drawn) [Compound 123] | 5 (Level 5: the growth inhibition rate is greater than 85%) | 5 (Level 5: the growth inhibition rate is greater than 85%) | 5 (Level 5: the growth inhibition rate is greater than 85%) | 5 (Level 5: the growth inhibition rate is greater than 85%) | 5 (Level 5: the growth inhibition rate is greater than 85%) |
| CC(Oc1nc(F)c(Cl)c(N)c1Cl)C(=O)OCc1cncnc1 (stereo not drawn) [Compound 124] | 5 (Level 5: the growth inhibition rate is greater than 85%) | 5 (Level 5: the growth inhibition rate is greater than 85%) | 5 (Level 5: the growth inhibition rate is greater than 85%) | 5 (Level 5: the growth inhibition rate is greater than 85%) | 5 (Level 5: the growth inhibition rate is greater than 85%) |
| CC(Oc1nc(F)c(Cl)c(N)c1Cl)C(=O)SCCc1ccncn1 (stereo not drawn) [Compound 125] | 5 (Level 5: the growth inhibition rate is greater than 85%) | 5 (Level 5: the growth inhibition rate is greater than 85%) | 5 (Level 5: the growth inhibition rate is greater than 85%) | 5 (Level 5: the growth inhibition rate is greater than 85%) | 5 (Level 5: the growth inhibition rate is greater than 85%) |
| CC(Oc1nc(F)c(Cl)c(N)c1Cl)C(=O)OCc1ncncn1 (stereo not drawn) [Compound 126] | 5 (Level 5: the growth inhibition rate is greater than 85%) | 5 (Level 5: the growth inhibition rate is greater than 85%) | 5 (Level 5: the growth inhibition rate is greater than 85%) | 5 (Level 5: the growth inhibition rate is greater than 85%) | 5 (Level 5: the growth inhibition rate is greater than 85%) |
| Cc1cc(COC(=O)C(C)Oc2nc(F)c(Cl)c(N)c2Cl)n(C)n1 (stereo not drawn) [Compound 127] | 5 (Level 5: the growth inhibition rate is greater than 85%) | 5 (Level 5: the growth inhibition rate is greater than 85%) | 5 (Level 5: the growth inhibition rate is greater than 85%) | 5 (Level 5: the growth inhibition rate is greater than 85%) | 5 (Level 5: the growth inhibition rate is greater than 85%) |
| CC(Oc1nc(F)c(Cl)c(N)c1Cl)C(=O)OCc1cn(C)cn1 (stereo not drawn) [Compound 129] | 5 (Level 5: the growth inhibition rate is greater than 85%) | 5 (Level 5: the growth inhibition rate is greater than 85%) | 5 (Level 5: the growth inhibition rate is greater than 85%) | 5 (Level 5: the growth inhibition rate is greater than 85%) | 5 (Level 5: the growth inhibition rate is greater than 85%) |
| CC(Oc1nc(F)c(Cl)c(N)c1Cl)C(=O)OCc1nccn1C (stereo not drawn) [Compound 130] | 5 (Level 5: the growth inhibition rate is greater than 85%) | 5 (Level 5: the growth inhibition rate is greater than 85%) | 5 (Level 5: the growth inhibition rate is greater than 85%) | 5 (Level 5: the growth inhibition rate is greater than 85%) | 5 (Level 5: the growth inhibition rate is greater than 85%) |
| CC(Oc1nc(F)c(Cl)c(N)c1Cl)C(=O)OCc1cncn1C (stereo not drawn) [Compound 131] | 5 (Level 5: the growth inhibition rate is greater than 85%) | 5 (Level 5: the growth inhibition rate is greater than 85%) | 5 (Level 5: the growth inhibition rate is greater than 85%) | 5 (Level 5: the growth inhibition rate is greater than 85%) | 5 (Level 5: the growth inhibition rate is greater than 85%) |
| CC(Oc1nc(F)c(Cl)c(N)c1Cl)C(=O)SCc1ccnn1C (stereo not drawn) [Compound 132] | 5 (Level 5: the growth inhibition rate is greater than 85%) | 5 (Level 5: the growth inhibition rate is greater than 85%) | 5 (Level 5: the growth inhibition rate is greater than 85%) | 5 (Level 5: the growth inhibition rate is greater than 85%) | 5 (Level 5: the growth inhibition rate is greater than 85%) |
| CCCn1cc(CCOC(=O)C(C)Oc2nc(F)c(Cl)c(N)c2Cl)cn1 (stereo not drawn) [Compound 133] | 5 (Level 5: the growth inhibition rate is greater than 85%) | 5 (Level 5: the growth inhibition rate is greater than 85%) | 5 (Level 5: the growth inhibition rate is greater than 85%) | 5 (Level 5: the growth inhibition rate is greater than 85%) | 5 (Level 5: the growth inhibition rate is greater than 85%) |
| CC(Oc1nc(F)c(Cl)c(N)c1Cl)C(=O)SCc1nncn1C (stereo not drawn) [Compound 134] | 5 (Level 5: the growth inhibition rate is greater than 85%) | 5 (Level 5: the growth inhibition rate is greater than 85%) | 5 (Level 5: the growth inhibition rate is greater than 85%) | 5 (Level 5: the growth inhibition rate is greater than 85%) | 5 (Level 5: the growth inhibition rate is greater than 85%) |
| CC(Oc1nc(F)c(Cl)c(N)c1Cl)C(=O)OCCc1cnn[nH]1 (stereo not drawn) [Compound 135] | 5 (Level 5: the growth inhibition rate is greater than 85%) | 5 (Level 5: the growth inhibition rate is greater than 85%) | 5 (Level 5: the growth inhibition rate is greater than 85%) | 5 (Level 5: the growth inhibition rate is greater than 85%) | 5 (Level 5: the growth inhibition rate is greater than 85%) |
